# Results taken from patent US8835428B2, “Diacylglycerol acyltransferase inhibitors” (Piramal Enterprises Limited, priority 2008, dated 2014).
# Target: T1, hDGAT1 (Homo sapiens, UniProt O75907)
# T1 construct: host or cells: Sf9 insect cells (baculovirus); microsomal preparation
# T1 sequence (O75907 1-488): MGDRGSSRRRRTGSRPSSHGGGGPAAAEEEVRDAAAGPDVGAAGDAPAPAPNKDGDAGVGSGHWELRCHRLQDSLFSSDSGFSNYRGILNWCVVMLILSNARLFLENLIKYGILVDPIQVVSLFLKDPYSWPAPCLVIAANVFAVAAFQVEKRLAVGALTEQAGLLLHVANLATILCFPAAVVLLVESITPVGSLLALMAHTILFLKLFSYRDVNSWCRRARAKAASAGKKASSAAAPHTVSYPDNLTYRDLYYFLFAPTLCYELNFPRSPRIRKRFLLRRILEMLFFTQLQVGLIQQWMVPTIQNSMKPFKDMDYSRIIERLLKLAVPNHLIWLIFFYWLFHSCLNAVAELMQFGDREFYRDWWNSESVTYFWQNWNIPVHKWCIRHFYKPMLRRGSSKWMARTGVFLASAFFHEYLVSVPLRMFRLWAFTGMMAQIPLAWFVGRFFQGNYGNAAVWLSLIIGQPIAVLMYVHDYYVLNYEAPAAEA
# Experiment: In-vitro DGAT1 assay (hDGAT1 microsomes from Sf9 cells, 14C oleoyl CoA, triglyceride formation)
# Assay type: biochemical
# Description: In-vitro Protocol for DGAT1 Assay
# Sf9 Culture and Treatment
# Sf9 cells were grown in T25 flasks containing Graces's Insect media with 10% FBS with antibiotic (100 units/mL penicillin, 100 μg/mL streptomycin sulphate, 0.25 μg/mL Amptotericin B as Fungizone) grown in a 27° C. incubator:
# hDGAT1ORF expression clone (RZPDo839C09146 in pDEST vector) was obtained from RZPD, Germany. hDGAT1 bacmid DNA was obtained by transformation of the hDGAT expression clone into DH10Bac E. coli competent cells. Approximately 1 μg of hDGAT1 bacmid DNA was infected into Sf9 cells with Cellfectin (Invitrogen) reagent. Following infection, Sf9 cells were incubated at 27° C. for 30 minutes. Five hours after infection, the media was replaced with growth media containing antibiotic (100 units/mL penicillin, 100 μg/mL streptomycin sulphate, 0.25 μg/mL Amptotericin B as Fungizone) and incubated at 27° C. for 72 hours. The supernatant containing the virus was centrifuged at 1500×g for 5 minutes, passed through 0.22 μm filter, and subsequently stored at 4° C. The virus was further amplified three more times by re-infection of Sf9 cells and the viral titer was determined by plaque assay.
# Preparation of DGAT1 Microsomes from Sf9 Cells
# Sf9 cells were seeded in spinner flasks on day 0 at a cell density of 1×10^6 and infected on day 1 with hDGAT1 baculovirus at a multiplicity of infection (MOI) of 5 and a cell density of 2×10^6. On day 3 (or 66-72 hours), cells were harvested and centrifuged at 2500×g for 10 minutes. Pellet was resuspended in lysis buffer (100 mM sucrose, 50 mM KCl, 40 mM KH2PO4, 30 mM EDTA, pH 7.2) and passed through 21-gauge needle approximately 10 times. The mixture was centrifuged at 12,000 rpm in a Sigma 12158-H rotor at 4° C. for 30 minutes. The supernatant was subjected to centrifugation at 35,000 rpm in a Beckman Ti-45 rotor at 4° C. for 1 hour. The resultant pellet containing the microsomes were resuspended overnight in 1 mL of lysis buffer and total protein concentration was estimated using Bradford Reagent. Microsomes were aliquoted and stored at −20° C.
# Measurement of DGAT1 Activity
# Frozen aliquots of hDGAT1 containing microsomes were thawed (5-10 mg/mL total protein) on ice and diluted to a working stock of 1 mg/mL with DGAT Assay Buffer (DAB). The DGAT reaction assay was performed by following the procedure described in U.S. Pat. No. 6,607,893 with some modifications that are described below.
# Preparation of DGAT1 substrate mixture: 1 mL stock solution of DGAT1 substrate mixture contains (i) 5.6 μL of ^14C oleoyl CoA (16.8 nCi) and 35 μL 1,2-dioleoyl-sn-glycerol (409.5 μM) or (ii) 5.6 μL of ^14C oleoyl CoA (16.8 nCi) and 105 μL 1,2-dioleoyl-sn-glycerol (1228.5 μM) or (iii) 5.6 μL of ^14C oleoyl CoA (16.8 nCi) and 140 μL 1,2-dioleoyl-sn-glycerol (1638 μM).
# 1,2-sn-dioleoylglycerol substrate concentration in the 1 mL stock solution of DGAT1 substrate mixture was varied depending on the microsome concentration used in the assay reaction. 1,2-dioleoyl-sn-glycerol stock (19.5 mM) was prepared by dissolving 25 mg of 1,2-dioleoyl-sn-glycerol (Sigma, US) in 2060 μL of acetone. The assay was performed in duplicates in a reaction volume of 100 μL. The reaction volume consisted of: • (i) 27.5 μL of DGAT assay buffer (0.25M Sucrose, 1 mM EDTA (pH 8.0), 150 mM Tris-HCl, pH 7.4, 1.25 mg/mL, fatty acid free BSA), • (ii) 10 μL of compound, of present invention or standard (dissolved in DMSO and diluted to 10× with DAB and screened at 10 μM, 5 μM and 1 μM), • (iii) 60 μL DGAT1 substrate mixture taken from a 1 mL stock (16.8 nCi of ^14C oleoyl CoA and 409.5 μM or 1228.5 μM or 1638 μM of 1,2-dioleyl-sn-glycerol), • (iv) 2.5-10 μL of 1 mg/mL of microsomes (the amount of assay buffer was varied depending upon the concentration of microsome to make up the volume to 100 μL). Procedure:
# The reaction was started by the addition of 2.5-10 μL of 1 mg/mL of microsomes (iv) to a mixture of (i), (ii) and (iii), vortexed and incubated at 37° C. for 10 minutes. […]
Structure (SMILES),inhibition at 10 µM (At 10 μM),inhibition at 1 µM,further results
"COC(=O)[C@H](CC(C)C)NC(=O)c1onc(-c2ccc(NC(=O)Nc3ccccc3)cc2)c1-c1ccccc1 [Example 90, (S)-4-Methyl-2-({4-phenyl-3-[4-(3-phenyl-ureido)-phenyl]-isoxazole-5-carbonyl}-amino)-pentanoic acid methyl ester]",0 to 50%,,
"CC(C)[C@H](NC(=O)c1cc(-c2ccc(NC(=O)Nc3cc(F)ccc3F)cc2)no1)C(=O)O [Example 199, (S)-2-(3-(4-(3-(2,5-Difluorophenyl)ureido)phenyl)isoxazole-5-carboxamido)-3-methylbutanoic acid]",,75 to 100%,
"COC(=O)[C@H]1CSC(c2cc(-c3ccc(Nc4nc5ccc(F)cc5s4)cc3)no2)=N1 [Example 11, (S)-2-{3-[4-(6-Fluoro-benzothiazol-2-ylamino)-phenyl]-isoxazol-5-yl}-4,5-dihydro-thiazole-4-carboxylic acid methyl ester]",0 to 50%,,
"CC(C)C(NC(=O)c1cc(-c2ccc(NC(=O)Nc3ccccc3F)c(F)c2)no1)C(=O)O (centres unmarked) [Example 148, 2-(3-(3-fluoro-4-(3-(2-fluorophenyl)ureido)phenyl)isoxazole-5-carboxamide)-3-methylbutanoic acid]",,,% inhibition of hDGAT1 (At 10 μM): +++ (>75% Inhibition ≦100)
"COC(=O)[C@H](C(C)C)N(C)C(=O)c1cc(-c2ccc(NC(=O)NC3CCCCC3)cc2)no1 [Example 311, (S)-methyl 2-(3-(4-(3-cyclohexylureido)phenyl)-N-methylisoxazole-5-carboxamido)-3-methylbutanoate]",,50 to 75%,
"Cc1ccc(NC(=O)Nc2ccc(-c3cc(C(=O)N[C@@H](Cc4ccc(O)cc4)C(=O)O)on3)cc2)cc1 [Example 273, (S)-3-(4-Hydroxyphenyl)-2-(3-(4-(3-p-tolylureido)phenyl)isoxazole-5-carboxamido)propanoic acid]",,,inhibition at 5 µM: 50 to 75%
"COC(=O)[C@@H](NC(=O)c1cc(-c2ccc(Nc3nc4ccc(F)cc4s3)cc2)no1)C(C)C [Example 5, (S)-2-({3-[4-(6-Fluoro-benzothiazol-2-ylamino)-phenyl]-isoxazole-5-carbonyl}-amino)-3-methyl-butyric acid methyl ester]",50 to 75%,,
"COC(=O)[C@H](CC(C)C)NC(=O)c1cc(-c2ccc(NC(=O)NC3CCCCC3)cc2)no1 [Example 82, (S)-2-({3-[4-(3-cyclohexyl-ureido)-phenyl]-isoxazole-5-carbonyl}-amino)-4-methyl-pentanoic acid methyl ester]",0 to 50%,,
"COC(=O)[C@H](NC(=S)c1cc(-c2ccc(NC(=O)Nc3ccccc3F)cc2)no1)C(C)C [Example 222, (R)-Methyl 2-(3-(4-(3-(2-fluorophenyl)ureido)phenyl)isoxazole-5-carbothioamido)-3-methylbutanoate]",,,inhibition at 5 µM: 50 to 75%
"CC(C)[C@H](NC(=O)c1cc(-c2ccc(NC(=O)Nc3ccc(OC(F)(F)F)cc3)cc2)no1)C(=O)O [Example 187, (S)-3-methyl-2-(3-(4-(3-(4-(trifluoromethoxy)phenyl)ureido)phenyl)isoxazole-5-carboxamido)butanoic acid]",,75 to 100%,
"CC(C)[C@H](NC(=S)c1cc(-c2ccc(Nc3nc4ccc(F)cc4s3)cc2)no1)C(=O)O [Example 45, (S)-2-({3-[4-(6-Fluoro-benzothiazol-2-ylamino)-phenyl]-isoxazole-5-carbothioyl}-amino)-3-methyl-butyric acid]",50 to 75%,,
"CC(C)CC(NC(=O)c1cc(-c2ccc(NC(=O)NCc3ccccc3)cc2)no1)C(=O)O (centres unmarked) [Example 110, 2-(3-(4-(3-Benzylureido)phenyl)isoxazole-5-carboxamido)-4-methyl pentanoic acid]",0 to 50%,,
"CC(C)[C@H](NC(=O)c1csc(-c2ccc(NC(=O)Nc3ccc(Cl)cc3Oc3ccccc3)cc2)n1)C(=O)O [Example 365, (S)-2-(2-(4-(3-(4-chloro-2-phenoxyphenyl)ureido)phenyl)thiazole-4-carboxamido)-3-methylbutanoic acid]",,50 to 75%,
"CC(C)[C@@H](C(=O)O)N(C)C(=O)c1cc(-c2ccc(NC(=O)Nc3ccccc3Cl)cc2)no1 [Example 314, (S)-2-(3-(4-(3-(2-chlorophenyl)ureido)phenyl)-N-methylisoxazole-5-carboxamido)-3-methylbutanoic acid]",,50 to 75%,
"CC(C)[C@H](NC(=O)c1csc(-c2ccc(NC(=O)Nc3ccccc3Cl)cc2)n1)C(=O)O [Example 369, (S)-2-(2-(4-(3-(2-Chlorophenyl)ureido)phenyl)thiazole-4-carboxamido)-3-methylbutanoic acid]",,0 to 50%,
"Cc1cc(-c2cc(C(=O)NC(C)C(=O)O)on2)ccc1NC(=O)Nc1c(F)cccc1F (centres unmarked) [Example 102, 2-(3-(4-(3-(2,6-Difluorophenyl)ureido)-3-methylphenyl)isoxazole-5-carboxamido)propanoic acid]",0 to 50%,,
"CCS/C(=N\[C@@H](C(=O)OC)C(C)C)c1cc(-c2ccc(NC(=O)Nc3ccccc3F)cc2)no1 [Example 224, (R,Z)-Methyl 2-(ethylthio(3-(4-(3-(2-fluorophenyl)ureido)phenyl)isoxazol-5-yl)methyleneamino)-3-methylbutanoate]",,0 to 50%,
"COC(=O)C(NC(=O)c1cc(-c2ccc(NC(=O)NS(=O)(=O)c3ccccc3C)cc2)no1)C(C)C (centres unmarked) [Example 263, Methyl 3-methyl-2-(3-(4-(3-(o-tolylsulfonyl)ureido)phenyl)isoxazole-5-carboxamido)butanoate]",,,inhibition at 5 µM: 0 to 50%
"COC(=O)[C@@H](NC(=O)c1cc(-c2cccc(Nc3nc4ccc(F)cc4s3)c2)no1)C(C)C [Example 22, (S)-2-({3-[3-(6-Fluoro-benzothiazol-2-ylamino)-phenyl]-isoxazole-5-carbonyl}-amino)-3-methyl-butyric acid methyl ester]",0 to 50%,,
"COC(=O)[C@@H]1CCCN1C(=O)c1cc(-c2cccc(Nc3nc4ccc(F)cc4s3)c2)no1 [Example 34, (S)-1-{3-[3-(6-Fluoro-benzothiazol-2-ylamino)-phenyl]-isoxazole-5-carbonyl}-pyrrolidine-2-carboxylic acid methyl ester]",0 to 50%,,
